The values below come from patent US20240279174A1, “ANTIBIOTICS COMPRISING LPXH-TARGETING COMPOUNDS AND METHODS OF MAKING AND USING THE SAME” (Duke University, priority 2019, published 2024).

By MIC is commonly meant the least concentration at which growth counts as inhibited. Broadly, the IC50 is the concentration that gives 50% inhibition. The term Ki denotes the equilibrium dissociation constant of an inhibitor or competing ligand from its target. In general, inhibition refers to the drop in the measured response relative to a control, in per cent.

Molecules are shown by their SMILES. In brackets after ≈: the same amount, converted by molar mass. Read-outs that look alike come from different tables or passages of the source. Where only a bound is given, the exact number is not on record here.

The subject of experiment [1] is E. coli W3110. Nature of the experiment: MIC assay (broth microdilution), E. coli. The class given is cell-based. Particulars: Escherichia coli, Table 4. As to the method:
(§1) The MIC assay protocol was adapted from the broth microdilution methods described by the National Committee for Clinical Laboratory Standards using 96-well plates as described previously. In brief, overnight bacterial cultures were diluted to an OD600 of 0.006 in cation-adjusted Mueller-Hinton medium containing 7% DMSO and incubated at 37° C. for 22 h in the presence of varying concentrations of inhibitors. Following overnight incubation, each well is treated with 10 μL of 3-(4,5-dimethylthiazol-2-yl)-2,5-diphenyltetrazolium bromide (MTT, 5 mg/mL) for 3 h. Finally, the culture is solubilized by addition of 2-propanol, and the results are read by taking the difference of the UV reading at both 570 and 690 nm. MIC values were reported as the lowest compound concentration that inhibited bacterial growth. The baseline for inhibited cell growth was determined to be <4× the average control reading due to the baseline optical density of the initial starting bacterial culture.
In general terms: Dilution methods test growth across graded concentrations, often in twofold steps.

Experiment [2] concerns K. pneumoniae (ATCC 10031). The experiment in a line: MIC assay (broth microdilution), K. pneumoniae. Format: cell-based. The note with it: Klebsiella pneumoniae, ATCC10031. As to the method: as §1
Experiment [3] deals with T1, K. pneumoniae LpxH (KpLpxH) (Klebsiella pneumoniae subsp. pneumoniae (strain ATCC 700721 / MGH 78578), UniProt A6T5R0). Nature of the experiment: LpxE-coupled malachite green LpxH activity assay (KpLpxH inhibition). The class given is biochemical. The note with it: for remaining activity at 0.1 µM: read-out: Percentage Activity of KpLpxH (vi/v0); for inhibition at 0.1 µM: read-out: Percentage Inhibition of KpLpxH. As to the method: Evaluation of LpxH inhibition by analogs: After completing the synthesis of sulfonyl piperazine compounds with various forms of linkers, the KpLpxH inhibition was biochemically characterized by these analogs at 0.1 μM using the nonradioactive, colorimetric malachite green assay that we had previously reported. […] Such an enhanced potency requires the presence of the hydroxamate group, as its substitution with a carboxylate group in compound 7 reduced the compound activity (vi/v0=30±6%).
The LpxE-coupled LpxH activity assay was conducted as described previously using the GB1-K. pneumoniae LpxH-His10 fusion protein. Briefly, two reaction mixtures were prepared. Mixture 1 contains 20 mM Tris-HCl (pH 8.0), 0.5 mg/mL BSA, 0.02% Triton X-100, 1 mM MnCl2, 1 mM DTT, 10% DMSO, and 200 µM substrate (UDP-DAGn), and mixture 2 is comprised of the same buffer, but instead of substrate, contains both LpxH (20 ng/ml) and 2× inhibitor. These mixtures were then pre-incubated at 37° C. for 10 min. To initiate the reaction, an equal volume of the LpxH mixture (mixture 2) was added to the substrate mixture (mixture 1) at 37° C. The final reaction solution contains 100 μM substrate, 10 ng/ml enzyme, and 1× inhibitor. At the desired reaction time points, an aliquot of 20 μL reaction mixture was removed and added to a well in 96-well half-area plate containing 5 mM EDTA (final concentration) to quench the LpxH reaction. Purified Aquifex aeolicus LpxE was then added to a final concentration of 5 μg/mL. The plate was incubated at 37° C. for 30 min followed by addition of formic acid to a final concentration of 3.75 M to quench the LpxE reaction. The malachite green reagent (Sigma Aldrich, catalog MAK307) was diluted 5-fold into the solutions, and the plate was incubated for 30 min at room temperature before the absorbance at 620 nm was measured. All measurements were done in triplicates, and standard error (S.E.) was calculated.

Experiment [4] has as its target T1, K. pneumoniae LpxH (KpLpxH). The note with it: previously reported value for 2; read-out: KI of KpLpxH inhibition (reported value); cited from earlier work.
Experiment [5] has as its system WT K. pneumoniae. The note with it: cited from earlier work.
In experiment [6] the test system is E. coli strains with a compromised outer membrane (yhjD*ΔkdtA) or with an efflux pump deletion (ΔtolC). The note with it: cited from earlier work.
[7] abbreviates: Table 4, read-out: MIC - K. pneumoniae (ATCC 10031).
Where [8] appears, read: Table 5, read-out: IC50: Average.
Where [9] appears, read: K. pneumoniae (ATCC 10031), in vitro, read-out: MIC.
Setting [10] is: 0.1 μM inhibitor, normalized against KpLpxH activity in 10% DMSO.

Consider `CN(c1ccccc1C(=O)N1CCc2cc(S(=O)(=O)N3CCN(c4cc(C(F)(F)F)cc(Cl)n4)CC3)ccc21)S(C)(=O)=O` [JH-LPH-106], for which the MIC in experiment [1] stood at 1.7 µg/mL (≈ 2.58 µM).

`CN(c1ccccc1C(=O)Nc1ccc(S(=O)(=O)N2CCN(c3cc(C(F)(F)F)cc(Cl)n3)CC2)cc1)S(C)(=O)=O` [JH-LPH-107]: the MIC in experiment [2] (setting [7]) was found to be 0.04 µg/mL (≈ 0.0633 µM); in experiment [1], 1 µg/mL (≈ 1.58 µM).

With `O=C(CN1CCOCC1)Nc1ccc(S(=O)(=O)N2CCN(c3cc(Cl)cc(C(F)(F)F)c3)CC2)cc1` [JH-LPH-69], the MIC in experiment [2] (setting [7]) came to 4 µg/mL (≈ 7.31 µM). The IC50 in experiment [3] (setting [8]) is 79 nM.

As to `O=C(CCCCCNC(=O)Nc1ccc(S(=O)(=O)N2CCN(c3cc(C(F)(F)F)cc(Cl)n3)CC2)cc1)NO` [JH-LPH-104], the MIC in experiment [2] (setting [7]) amounted to 1 µg/mL (≈ 1.69 µM); in experiment [1], 16 µg/mL (≈ 27 µM). Also, in experiment [3] (setting [8]), the IC50 was determined as 0.23 nM.

As for `CN(c1ccccc1C(=O)Nc1ccc(S(=O)(=O)N2CCN(c3cc(Cl)cc(Cl)c3)CC2)cc1)S(C)(=O)=O` [JH-LPH-105], the figures for the MIC in experiment [2] (setting [7]) and in experiment [1] were 0.3 µg/mL (≈ 0.502 µM) and 2 µg/mL (≈ 3.35 µM), respectively.

For the compound `CC(=O)N1CCc2cc(S(=O)(=O)N3CCN(c4cc(Br)cc(C(F)(F)F)c4)CC3)ccc21` [JH-LPH-48], the MIC in experiment [2] (setting [7]) is more than 64 µg/mL. In addition, in experiment [3] (setting [8]), the IC50 came out at 49 nM.

Consider `CC(=O)N1CCc2cc(S(=O)(=O)N3CCN(c4cc(Cl)cc(C(F)(F)F)c4)CC3)ccc21` [JH-LPH-33], for which the MIC in experiment [2] (setting [9]) and in experiment [2] (setting [7]) was 0.83 µg/mL (≈ 1.7 µM) each time. Further, the Ki in experiment [4] was 10 nM. The remaining activity at 0.1 µM in experiment [3] (setting [10]) came out at 21%. In experiment [3] (0.1 μM inhibitor), the inhibition at 0.1 µM was 79%. Further, the IC50 in experiment [3] (setting [8]) was determined as 104 nM.

Take `CC(=O)N1CCc2cc(S(=O)(=O)N3CCN(c4cc(C)cc(C(F)(F)F)c4)CC3)ccc21` [JH-LPH-49]: in experiment [2] (setting [7]), the MIC was 18.7 µg/mL (≈ 39.9 µM). Further, the IC50 in experiment [3] (setting [8]) came out at 152 nM.

As for `O=C(CCCCNC(=O)Nc1ccc(S(=O)(=O)N2CCN(c3cc(Cl)cc(C(F)(F)F)c3)CC2)cc1)NO` [JH-LPH-41], in experiment [2] (setting [7]), the MIC stood at 10.7 µg/mL (≈ 18.5 µM). The remaining activity at 0.1 µM in experiment [3] (setting [10]) was determined as 36%. Also, in experiment [3] (0.1 μM inhibitor), the inhibition at 0.1 µM was 64%. For the same compound, the IC50 in experiment [3] (setting [8]) worked out at 73 nM.

With `O=C(CCCCCNC(=O)Nc1ccc(S(=O)(=O)N2CCN(c3cc(Cl)cc(C(F)(F)F)c3)CC2)cc1)NO` [JH-LPH-50], the MIC in experiment [2] (setting [9]) turned out to be 3.3 µg/mL (≈ 5.57 µM); in experiment [2] (setting [7]), 3.33 µg/mL (≈ 5.62 µM). The affinity in experiment [3] corresponds to a Ki of 3.1 nM. Also, in experiment [3] (0.1 μM inhibitor, normalized against KpLpxH activity in 10% DMSO, listed as 13 (JH-LPH-50)), the “Percentage Activity of KpLpxH (vi/v0)” value amounted to 3 ± 2%. In experiment [3] (setting [10]), the remaining activity at 0.1 µM is 3 ± 2%. Moreover, the inhibition at 0.1 µM in experiment [3] (0.1 μM inhibitor) was 97%. Also, the IC50 in experiment [3] (IC50 curves FIG. 3E/4E, read-out: IC50 of KpLpxH inhibition) is 7.7 nM; in experiment [3] (setting [8]), 8 nM.

In the case of `CC(=O)N1CCc2cc(S(=O)(=O)N3CCN(c4cccc(C(F)(F)F)c4)CC3)ccc21` [AZ1, reference compound], the MIC in experiment [2] (setting [9]) and in experiment [2] (setting [7]) was more than 64 µg/mL each time. In addition, the remaining activity at 0.1 µM in experiment [3] (setting [10]) is 78%. The inhibition at 0.1 µM in experiment [3] (0.1 μM inhibitor) worked out at 22%. Also, the antibiotic activity result in experiment [5] and in experiment [6] was “weak antibiotic activity” in each case.
